Assay results: PubChem BioAssay (NCI)
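Compound exposure: 48 hours, 5 concentrations, 96-well plates. At the GI50, growth is halved. TGI denotes the concentration required for complete inhibition of growth.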

Tests used:
Test in all cases: NCI anticancer screen, dose series, 48 h
786-0 renal = system: 786-0 renal
BT-549 breast = system: BT-549 breast
HCC-2998 colon = system: HCC-2998 colon
HS 578T breast = system: HS 578T breast
SK-MEL-2 melanoma = system: SK-MEL-2 melanoma
SK-MEL-28 melanoma = system: SK-MEL-28 melanoma
SK-MEL-5 melanoma = system: SK-MEL-5 melanoma
SK-OV-3 ovarian = system: SK-OV-3 ovarian
SN12C renal = system: SN12C renal
CAKI-1 renal = system: CAKI-1 renal

| Structure (SMILES) | TGI (786-0 renal) [µM] | TGI (BT-549 breast) [µM] | TGI (HCC-2998 colon) [µM] | TGI (HS 578T breast) [µM] | TGI (SK-MEL-2 melanoma) [µM] | TGI (SK-MEL-28 melanoma) [µM] | TGI (SK-MEL-5 melanoma) [µM] | TGI (SK-OV-3 ovarian) [µM] | TGI (SN12C renal) [µM] | TGI (CAKI-1 renal) [µM] | GI50 (BT-549 breast) [µM] | GI50 (HS 578T breast) [µM] | GI50 (SK-MEL-2 melanoma) [µM] | GI50 (SK-MEL-28 melanoma) [µM] | GI50 (SK-MEL-5 melanoma) [µM] |
| --- | --- | --- | --- | --- | --- | --- | --- | --- | --- | --- | --- | --- | --- | --- | --- |
| NC(CC(O)(c1ccccc1)c1ccccc1)c1ccccc1S (stereo unspecified) | 29.4 | 27.8 | 50 | 51 | 33.2 | 31.5 | 25.6 | 37.6 | 44.1 |  |  |  |  |  |  |
| CC(=O)OC(C)(C)CCC(=O)[C@](C)(O)[C@H]1[C@H](O)C[C@@]2(C)[C@@H]3CC=C4C(C)=C(OC5OC(CO)C(O)C(O)C5O)C(=O)C[C@@H]4[C@]3(C)C(=O)C[C@]12C (stereo partly specified) | > 100 | > 100 | > 100 |  | > 100 | > 100 | > 100 | > 100 | > 100 | > 100 |  |  |  |  |  |
| O=C(O)CCc1ccc2c(c1)CC1(Cc3ccccc3C1)C2 | > 100 |  | > 100 | > 100 | > 100 |  | > 100 | > 100 | > 100 |  |  |  |  |  |  |
| CN(C)c1ccc(/C=C/C(=O)O)cc1 |  |  | > 100 |  | > 100 |  | > 100 | > 100 | > 100 | > 100 |  |  |  |  |  |
| CN(Cc1cnc2nc(N)nc(N)c2n1)c1ccc(C(=O)NC(CCC(=O)NC(CC(P(=O)(O)O)P(=O)(O)O)C(=O)O)C(=O)O)cc1 (stereo unspecified) | > 100 | > 100 |  | > 100 | > 100 | > 100 | > 100 | > 100 | > 100 |  |  |  |  |  |  |
| CC12ON(P(=O)(c3ccccc3)c3ccccc3)C(C)(c3ccccc31)c1ccccc12 | > 100 | > 100 | > 100 | > 100 | > 100 | > 100 | > 100 | > 100 | > 100 | > 100 |  |  |  |  |  |
| O=[N+]([O-])c1ccc(O)c(/C=N/c2nc(-c3ccccc3)cs2)c1 | > 100 | 46.4 | > 61.4 | 74.6 | 70.5 | > 100 | 34.4 | 89.5 | > 100 | > 100 |  |  |  |  |  |
| CC(=O)OC(C)c1cc2c(s1)C(=O)c1c(C(C)OC(C)=O)csc1C2=O (stereo unspecified) | 4.93 | 3.83 | 3.1 | 7.59 | 3.56 | 3.27 | 1.83 | 13.8 | 2.04 |  | 2.14 | 2.08 | 1.56 | 1.65 | 0.631 |
| CC1=CCC[C@H]2[C@](C)(CC3=CC(=O)C(Sc4ccccc4)=CC3=O)[C@@H](C)CC[C@]12C | 32.2 | 34.1 | 41 |  | 56.1 | 35.7 | 30.9 |  | 31.6 | 36.7 |  |  | 19.9 |  |  |
| COc1cc2c(cc1OC)[C@@](C)(C(O)C(O)C(C)(C)O)NCC2 (stereo partly specified) | > 100 | > 100 |  | > 100 | > 100 | > 100 | > 100 | > 100 | > 100 | > 100 |  |  |  |  |  |
| COc1ccc(C2SCC(=O)N2NC(=O)C(C)Oc2ccccc2C)cc1 (stereo unspecified) | > 100 | > 100 | > 100 | > 100 | > 100 | > 100 | > 100 | > 100 | > 100 | > 100 |  |  |  |  |  |
